Experimental data taken from patent US20250230138A1, “COMPOUNDS HAVING A T-STRUCTURE FORMED BY AT LEAST FOUR CYCLES FOR USE IN THE TREATMENT OF CANCER AND OTHER INDICATIONS” (TheRas, Inc., priority 2022, published 2025).
Where two headings read alike, the source gives them in different places.

Assays:
[1] = target: Cys242 in human PIK3CA (157-299) (Homo sapiens (Human), UniProt P42336); test: Covalent modification assay using MALDI-TOF MS; format: biochemical; details: 4 h reaction time point
Protocol: Matrix-Assisted Laser Desorption Ionization-Time of Flight Mass Spectrometry (MALDI-TOF MS) analysis of covalent modification of Cys242 in human PIK3CA (157-299) was performed.
Reaction: 3.33 μM or 1 μM of PIK3CA (157-299) protein (produced in-house by Protein Expression Laboratory, FNLCR/Leidos Biomed) in 20 mM HEPES buffer containing 150 mM NaCl, 2 mM MgCl2, pH 7.3 was prepared freshly before assay. Twelve-μL aliquots of protein were dispensed onto low volume 384-well plate, then 470 nL DMSO and 30 nL of tested compounds from 10 mM DMSO stocks were added to appropriate wells using ECHO 555 acoustic liquid handler (Labcyte Inc.). For each reaction/assay, three blanks were prepared by mixing 12 μL of protein solution with 500 nL DMSO. The wells content was carefully mixed by aspiration, and then the plate was sealed by an adhesive cover, centrifuged at 931 g for 1 minute, and kept in the dark at room temperature until 15 min, 30 min, 2 h, or 4 h collections.
Targetpretreatment: Before each assay MALDI target (Bruker MPT 384 ground steel BC) was pre-treated by pipetting on each spot 0.75 μL of saturated sinapinic acid in acetonitrile (ACN).
Sample preparation: At collection time point, 2 μL of reaction mixtures were pipetted out into […] MALDI matrix solution (saturated solution of sinapinic acid in 1:1 ACN:water solution containing 0.15% trifluoroacetic acid (TFA)) deposited on 384 well polypropylene plate. The resulting solution was mixed by aspiration, centrifuged at 931 g for 1 minute, then 1.5 μL aliquots were dispensed on pre-treated MALDI target using Beckman Coulter Biomek FX^P 96/384-Span-8 Laboratory Automation Workstation. Finally, the MALDI target was dried under a mild vacuum to produce spots with a fine crystalline structure.
Measurements: MALDI-TOF measurements were performed on Bruker Daltonics rapifleX Tissuetyper TOF-TOF mass spectrometer using linear mode and mass ranging from 16.0 to 19.6 kDa. Detector gain was set to 0.64×(459 V), sample rate to 5 GS/s, real-time smoothing to medium (175 MHz), laser smart beam pattern was set to “Custom” single smartbeam beam scan with a scan range of 40 μm on both X and Y axis, and the laser frequency was 10000 Hz. Spectra were automatically collected using the custom AutoXecute method. Laser power was auto adjusted using fuzzy control. The peak selection range was set to be between 16.0 and 18.5 kDa. Peak evaluation uses a half-width parameter set to be smaller than 40 Da for processed spectrograms (centroid peak detection; smoothed by SavitzkyGolay algorithm using 7 m/z width and 2 cycles; baseline was subtracted using a median algorithm with flatness 1 and median level 0). Fuzzy control used Proteins/Oligonucleotides protocol with minimum half-width 1/10 times above threshold. Up to 40000 satisfactory shots were collected in 10000 short steps. Dynamic termination was implemented to finish data collection when the peak signal/noise ratio was reaching a value of 1000.
Spectra processing: Spectra were smoothed by SavitzkyGolay algorithm using 7 m/z width and three cycles. Centroid peak detection algorithm was used with signal to noise threshold set to 6, relative intensity threshold 3%, peak width 10 m/z, and median baseline subtraction using flatness of 1 and the median level of 0.1. Peak intensity and area under the peak were evaluated and recorded for all peaks between 16.0 and 19.5 kDa.
Calculation of percent modification: Percent modification was calculated as a ratio of peak height for protein modified by compound to the sum of the peak height of remaining protein plus peak height for protein modified by a compound. If multiple modifications were observed each was calculated as a ratio of peak height for given modification versus the sum of peak heights for all observed protein species.

[2] = test system: pAKT in BT474 cells; test: Cell-based pAKT HTRF assay in BT474 cells; details: BT474 cells, 4 hr incubation, read-out: pAKT inhibition IC50 in BT474 cells
Protocol: On Day 1, cells were seeded into 96-well plates at 2.5×10^4 cells/well in complete growth media (DMEM, 10% FBS). On Day 2, cells were treated with compounds at 0.25% DMSO. The source plate was created with compounds diluted in media at 5-fold the final assay concentration. The compounds are run in a 9-point concentration curve starting at 3 μM, with a 3-fold dilution between concentrations. 20 μL was transferred onto the cell plates (final volume in wells was 100 μL). Plates were harvested after 4 hr incubation by aspirating media and adding kit-supplied 1× supplemented lysis buffer to all wells (75 μL per well). Plates were then placed on a plate shaker and incubated at 850 rpm for an additional 30 min. The antibody mixture solution was prepared by diluting aliquoted d2 and Eu Cryptate antibodies 1:20 in kit supplied detection buffer, then mixed the diluted antibodies solutions (1:1 v:v). 4 μL of this solution was then added to a 384-well detection plate (Perkin Elmer; 6008230). Samples were homogenized by pipetting up and down and then transferred (16 μL of cell lysates) from the 96-well cell culture plate to two wells of the HTRF 384-well detection plate containing the antibody solution. Plates were centrifuged (524 g for 1 min) and allowed to incubate between 4 and 24 h at room temperature. The maximum signal is reached after 4 h incubation time and remains stable over a period of 24 hours. Therefore, readings can be made between 4 and 24 h of incubation. Plates were centrifuged again (524 g for 1 m), and analyzed on the EnVision plate reader using the following settings: Excitation 320 nm, Bandwidth […]; Emission 615 nm, Bandwidth […], Gain 10000, Flashes 100, Lag 60 μs.

[3] = 3.33 μM protein target, 1:7.5 protein to compound ratio (compounds 1-852)
[4] = 1 μM protein target, 1:5 protein to compound ratio (compounds 853-1279)

Cys242 in human PIK3CA (157-299), sequence (P42336 157-299): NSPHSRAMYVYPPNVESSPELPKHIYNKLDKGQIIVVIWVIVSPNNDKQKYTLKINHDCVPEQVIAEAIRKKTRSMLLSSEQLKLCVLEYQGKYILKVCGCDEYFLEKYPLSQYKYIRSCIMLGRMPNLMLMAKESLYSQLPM

Structure (SMILES) | IC50 ([2]; Compounds 10-999) [nM] | IC50 ([2]; Compounds 1000-1279) [nM] | % of modification [1, 3] | % of modification [1, 4]
C=CC(=O)N1CCc2nc(-c3nc(-c4ccc(=O)n(C)c4)c4ccsc4c3-c3c(F)cc(F)cc3OC(C)C)sc2C1 [Compound 348] | < 100 | – | A (percent of modification of PIK3CA protein ≥75%) | –
C=CC(=O)N1CCc2ncc(-c3nc(-c4ccc5c(c4)CN(C)CC5(F)F)c4ccsc4c3-c3c(F)cc(F)cc3OCCOC)cc2C1 [Compound 1274] | – | < 100 | – | A (percent of modification of PIK3CA protein ≥75%)
C=CC(=O)N1CCn2nc(-c3nc(-c4ccc5c(c4)CCNC5=O)c4ccsc4c3-c3ccc(F)cc3OCCOC)nc2C1 [Compound 184] | < 100 | – | A (percent of modification of PIK3CA protein ≥75%) | –
C=CC(=O)N1Cc2cc(-c3nc(-c4ccc5c(c4)CCN(C)C5)c4ccsc4c3-c3c(F)cc(F)cc3OC[C@@H](C)O)nn2C[C@H]1C [Compound 605] | < 100 | – | A (percent of modification of PIK3CA protein ≥75%) | –
C=CC(=O)N1Cc2cc(-c3nc(-c4ccc5c(c4)CCN(C)C5)c4ccsc4c3-c3c(F)cc(F)cc3OC[C@@H](C)O)nn2[C@@H](C)C1 [Compound 589] | < 100 | – | D (percent of modification <25%) | –
C=CC(=O)N1CC(n2cc(-c3nc(N4CCc5cn[nH]c5C4)c4ccsc4c3-c3ccc(F)cc3OCCOC)cn2)C1 [Compound 166] | 100 to 1000 | – | A (percent of modification of PIK3CA protein ≥75%) | –
C=CC(=O)N1CCc2ccc(-c3nc(-c4ccc5c(c4)CNC5=O)c4ccsc4c3-c3c(F)cc(F)cc3OCCOC)cc2C1 (single isomer, unassigned) [Compound 886] | > 3000 | – | – | D (percent of modification <25%)
CC1c2cc(-c3nc(-c4ccc5c(cnn5C)c4)c4ccsc4c3-c3c(F)cc(F)cc3OCCO)nn2CCN1C(=O)C(O)CO (centres unmarked) [Compound 1236] | – | > 1000 | – | –
COCCOc1cc(F)ccc1-c1c(-c2ccc(OC(C)C)cc2F)nc(-c2ccc3c(c2)CCNC3)c2ccsc12 [Compound 231] | > 3000 | – | – | –
C=CC(=O)N[C@H]1CCc2ccc(-c3nc(-c4ccc5c(c4)CCNC5)c4ccsc4c3-c3ccc(F)cc3OCCOC)cc21 [Compound 81] | – | – | D (percent of modification <25%) | –
C=CC(=O)N1CCn2nc(-c3nc(-c4ccc5c(c4)CCN(C)C5)c4ccsc4c3-c3c(F)cc(F)cc3OC(C)C)cc2[C@H]1C [Compound 542] | 100 to 1000 | – | – | –
C=CC(=O)N1CCn2nc(-c3nc(-c4ccc5c(c4)CCN(C)C5)c4ccsc4c3-c3c(F)cc(F)cc3OC(C)C)cc2[C@@H]1C [Compound 541] | < 100 | – | – | –
CCC(=O)N1CCn2nc(-c3nc(-c4ccc5c(c4)CCNC5=O)c4ccsc4c3-c3ccc(F)cc3OC(C)C)nc2C1 [Compound 260] | > 3000 | – | – | –
C=CC(=O)N1CCCc2ccc(-c3nc(-c4ccc5c(c4)CCNC5)c4ccsc4c3-c3ccc(F)cc3OCCOC)cc21 [Compound 66] | – | – | D (percent of modification <25%) | –
CCC(=O)N1CC(n2cc(-c3nc(-c4ccc5c(c4)CCNC5)c4ccsc4c3-c3ccc(F)cc3OC)cn2)C1 [Compound 124] | > 3000 | – | – | –
CCC(=O)N1CCn2nc(-c3nc(-c4ccc5c(c4)CCNC5=O)c4ccsc4c3-c3ccc(F)cc3OC(C)C)cc2C1 [Compound 269] | 100 to 1000 | – | – | –
C=CC(=O)N1CCCC1Cn1cc(-c2nc(-c3ccc4c(c3)CCNC4)c3ccsc3c2-c2ccc(F)cc2OCCOC)cn1 (centres unmarked) [Compound 63] | – | – | A (percent of modification of PIK3CA protein ≥75%) | –
C=CC(=O)N1CCc2ccc(-c3nc(-c4ccc5c(c4)CCNC5)c4ccsc4c3-c3ccc(F)cc3OCCOC)cc21 [Compound 65] | – | – | D (percent of modification <25%) | –
CC1c2cc(-c3nc(-c4ccc5c(cnn5C)c4)c4ccsc4c3-c3c(F)cc(F)cc3OCCO)nn2CCN1C(=O)C(O)CO (centres unmarked) [Compound 1235] | – | > 1000 | – | –

Now from value to compound, other results behind:

IC50 ([2]; Compounds 10-999) [nM] | IC50 ([2]; Compounds 1000-1279) [nM] | Structure (SMILES) | % of modification [1, 3] | % of modification [1, 4]
– | < 100 | C=CC(=O)N1CCn2nc(-c3nc(-c4cccc(OCCN(C)C)c4)c4ccsc4c3-c3c(F)cc(F)cc3OCCOC)cc2C1C (centres unmarked) [Compound 1046] | – | A (percent of modification of PIK3CA protein ≥75%)
< 100 | – | C=CC(=O)N1CCn2nc(-c3nc(-c4cnc5c(c4)CNC(=O)C5)c4ccsc4c3-c3c(F)cc(F)cc3OCCOC)cc2[C@H]1C [Compound 750] | A (percent of modification of PIK3CA protein ≥75%) | –
< 100 | – | C=CC(=O)N1Cc2cc(-c3nc(-c4ccc5c(c4)CNC(=O)C5)c4ccsc4c3-c3c(F)cc(F)cc3OCCO)nn2CC1C (centres unmarked) [Compound 927] | – | A (percent of modification of PIK3CA protein ≥75%)
< 100 | – | C=CC(=O)N1CCn2nc(-c3nc(-c4ccc5c(c4)ncn5C)c4ccsc4c3-c3c(F)cc(F)cc3OC[C@@H](C)O)cc2[C@H]1C [Compound 761] | A (percent of modification of PIK3CA protein ≥75%) | –
– | 100 to 1000 | C=CC(=O)N1CCn2nc(-c3nc(N4CC5(CNC(=O)C5)C4)c4ccsc4c3-c3c(F)cc(F)cc3OCCOC)cc2C1C (centres unmarked) [Compound 1013] | – | A (percent of modification of PIK3CA protein ≥75%)
< 100 | – | C=CC(=O)N1CCn2nc(-c3nc(-c4ccc(CN(C)C)cc4)c4ccsc4c3-c3c(F)cc(F)cc3OCCOC)cc2C1C (centres unmarked) [Compound 991] | – | A (percent of modification of PIK3CA protein ≥75%)
< 100 | – | C=CC(=O)N1Cc2cc(-c3nc(-c4ccc5c(c4)CN(C)C5=O)c4ccsc4c3-c3c(F)cc(F)cc3OCCOC)nn2CC1C (centres unmarked) [Compound 474] | A (percent of modification of PIK3CA protein ≥75%) | –
1000 to 3000 | – | C=CC(=O)N1CCn2nc(-c3nc(-c4ccc5c(c4)CCN(C)C5)c4ccsc4c3-c3c(F)cc(F)cc3OC(C)C)cc2[C@@H]1C [Compound 540] | – | –
< 100 | – | C=CC(=O)N1CCn2nc(-c3nc(-c4ccc5c(c4)CCN(C)C5)c4ccsc4c3-c3c(F)cc(F)cc3OC(C)C)cc2[C@H]1C [Compound 543] | – | –
– | > 1000 | CCC(=O)N1CCn2nc(-c3nc(-c4ccc5c(cnn5C)c4)c4ccsc4c3-c3c(F)cc(F)cc3OCCOC)cc2C1C (centres unmarked) [Compound 1204] | – | –
– | > 1000 | COCCOc1cc(F)cc(F)c1-c1c(-c2cc3n(n2)CCN(C(=O)C(O)CO)C3C)nc(-c2ccc3c(cnn3C)c2)c2ccsc12 (centres unmarked) [Compound 1241] | – | –
